Measurements from patent US8993304B2, “Chloramphenicol resistance selection in Bacillus licheniformis” (Novozymes A/S, priority 2006, dated 2015).

Columns and labels:
Type in all cases: cell-based, Bacillus licheniformis
ATCC14580 = test: Test of chloramphenicol resistance, growth in liquid TY+glucose culture; details: 30° C.
Method: (§1) Strains PP1897-3, SJ8071 (=PP1897-3 delta cat), ATCC14580, and SJ8344 (=ATCC14580 delta cat) were propagated in 10 ml TY (WO 94/14968, p16) supplemented with 0.5% glucose at 30° C. overnight, with shaking. 50 microliter aliquots were used to inoculate further 10 ml TY+glucose cultures, supplemented with chloramphenicol (cam) to concentrations: 1 microgram/ml, 2 microgram/ml, 3 microgram/ml, 6 microgram/ml, 9 microgram/ml, or 12 microtram/ml, and incubation with shaking continued at 30° C. Growth was scored by visual inspection of turbidity after approximately 7 hours (table 1), and again after overnight incubation (table 2).

PP1897-3 = test: as above; details: 30° C.
Method: as §1

[1] = test system: SJ8071 (=PP1897-3 delta cat); test: as above; details: 30° C.
Method: as §1

[2] = test system: SJ8344 (=ATCC14580 delta cat); test: as above; details: 30° C.
Method: as §1

SJ8071 = test: Growth on reisolation onto LPBSG plates with chloramphenicol; details: SJ8071 deletion strain; LPBSG plates with 10 mikrogram/ml chloramphenicol
SJ8072 = test: as above; details: SJ8072 deletion strain; LPBSG plates with 10 mikrogram/ml chloramphenicol
control strain = test: as above; details: LPBSG plates with 10 mikrogram/ml chloramphenicol
[3] = test system: cat-deleted recipient strains; test: Transconjugant selection on chloramphenicol plates; details: cat-deleted recipients (SJ8071, SJ8344); donor SJ8000; chloramphenicol 6 microgram/ml; 30° C. overnight
Method: (§2) B. licheniformis strains PP1897-3, the cat-deleted derivative SJ8071, strain ATCC14580, and the cat-deleted derivative SJ8344 were used as recipients in conjugations with donor strain SJ8000, essentially as described before.
(§3) For each donor/recipient combination, donor and recipient colonies were scraped off overnight plates and mixed in a small volume of liquid TY medium, and equal volumes from this mixture was plated on each of two LBPGS plates with D-alanine. Following 6 hours incubation at 30° C., one plate was replicaplated onto LBPGS with erythromycin (2 microgram/ml), and the other plate replica plated onto LPPGS with chloramphenicol (6 microgram/ml). These plates were incubated at 30° C. overnight, then left at room temperature (20-25° C.) for further 3 days.

[4] = test system: recipient strains containing intact, chromosomal chloramphenicol resistance genes; test: Transconjugant selection on chloramphenicol plates; details: recipients with intact chromosomal cat (PP1897-3, ATCC14580); donor SJ8000; chloramphenicol 6 microgram/ml; 30° C. overnight
Method: as §2, §3

[5] = 1 μg/ml cam, after 7 hours incubation
[6] = 1 μg/ml cam, after overnight incubation
[7] = 2 μg/ml cam, after 7 hours incubation
[8] = 2 μg/ml cam, after overnight incubation
[9] = 3 μg/ml cam, after 7 hours incubation
[10] = 3 μg/ml cam, after overnight incubation
[11] = 6 μg/ml cam, after 7 hours incubation
[12] = 6 μg/ml cam, after overnight incubation
[13] = 9 μg/ml cam, after 7 hours incubation
[14] = 9 μg/ml cam, after overnight incubation
[15] = 12 μg/ml cam, after 7 hours incubation
[16] = 12 μg/ml cam, after overnight incubation

In the case of O=C(N[C@H](CO)[C@H](O)c1ccc([N+](=O)[O-])cc1)C(Cl)Cl [cam, chloramphenicol], the “Growth scored by visual inspection of turbidity” value (“Growth scored” for short) (ATCC14580; [5]) is reported as “++”, the “Growth scored” value (ATCC14580; [6]) is reported as “++” and the “Growth scored” value (ATCC14580; [7]) is reported as “+”. The “Growth scored” value (ATCC14580; [8]) was “++”, the “Growth scored” value (ATCC14580; [9]) was “+” and the “Growth scored” value (ATCC14580; [10]) was “++”. For the same compound, the “Growth scored” value (ATCC14580; [11]) was “−”, the “Growth scored” value (ATCC14580; [12]) was “++” and the “Growth scored” value (ATCC14580; [13]) was “−”. The “Growth scored” value (ATCC14580; [14]) was “++”, the “Growth scored” value (ATCC14580; [15]) was “−” and the “Growth scored” value (ATCC14580; [16]) was “+”. For the same compound, the “Growth scored” value (PP1897-3; [5]) was “++”, the “Growth scored” value (PP1897-3; [6]) was “++” and the “Growth scored” value (PP1897-3; [7]) was “++”. For the same compound, the “Growth scored” value (PP1897-3; [8]) was “++”, the “Growth scored” value (PP1897-3; [9]) was “+” and the “Growth scored” value (PP1897-3; [10]) was “++”. For the same compound, the “Growth scored” value (PP1897-3; [11]) was “−”, the “Growth scored” value (PP1897-3; [12]) was “++” and the “Growth scored” value (PP1897-3; [13]) was “−”. For the same compound, the “Growth scored” value (PP1897-3; [14]) was “++”, the “Growth scored” value (PP1897-3; [15]) was “−” and the “Growth scored” value (PP1897-3; [16]) was “+”. For the same compound, the “Growth scored” value [1, 5] was “+”, the “Growth scored” value [1, 6] was “++” and the “Growth scored” value [1, 7] was “−”. For the same compound, the “Growth scored” value [1, 8] was “++”, the “Growth scored” value [1, 9] was “−” and the “Growth scored” value [1, 10] was “++”. The “Growth scored” value [1, 11] was “−”, the “Growth scored” value [1, 12] was “+” and the “Growth scored” value [1, 13] was “−”. For the same compound, the “Growth scored” value [1, 14] was “+”, the “Growth scored” value [1, 15] was “−” and the “Growth scored” value [1, 16] was “+”. The “Growth scored” value [2, 5] was “+”, the “Growth scored” value [2, 6] was “++” and the “Growth scored” value [2, 7] was “−”. For the same compound, the “Growth scored” value [2, 8] was “++”, the “Growth scored” value [2, 9] was “−” and the “Growth scored” value [2, 10] was “++”. For the same compound, the “Growth scored” value [2, 11] was “−”, the “Growth scored” value [2, 12] was “+” and the “Growth scored” value [2, 13] was “−”. The “Growth scored” value [2, 14] was “+”, the “Growth scored” value [2, 15] was “−” and the “Growth scored” value [2, 16] was “+”. For the same compound, the “Growth when reisolated onto plates” value (SJ8071) was “absolutely no growth”, the “Growth when reisolated onto plates” value (SJ8072) was “absolutely no growth” and the “Growth when reisolated onto plates” value (control strain) was “some growth”. The “Transconjugant colonies using chloramphenicol selection” value [3] was “Distinct transconjugant colonies” and the “Transconjugant colonies using chloramphenicol selection” value [4] was “No distinct transconjugant colonies”.
